In patent publication US20100196357A1, “Microrna modulators and method for identifying and using the same” (priority 2008, published 2010):

Test system: miR-21
Assay: high throughput screen for compounds that modulate miR-21
Format: cell-based
Details: Homo sapiens; Tables 4-12
Source text: This example describes a high throughput screening assay to identify small organic molecules that perturb the miRNA process. These active small molecules can be used as novel chemical tools to better understand miRNA functions and the molecular mechanisms of miRNA biogenesis. Moreover, miRNA inhibitors can be potentially developed into new therapeutics, including anticancer and antiviral agents. The high throughput assay is composed of a two-stage screening protocol, including of a primary screen to identify potential lead compounds from small molecule collections, and a secondary screen to evaluate and characterize the primary actives and to obtain a detailed structure-activity relationship (SAR).
Primary miR-21 Assay. The primary miR-21 FLuc reporter assay is carried out with HeLa cells expressing the Luc-miR-21 reporter using a 48-hour incubation time. Active compounds that increase the luciferase response are identified based upon inhibition of miR-21.
SAR. The concentration-response data for the entire high throughput screen is plotted and modeled by a four parameter logistic fit and SAR analysis is performed according to conventional approaches (Iglese, et al. (2006) Proc. Natl. Acad. Sci. USA 130:11473-8). In brief, Class 1.1 and 1.2 are full curves containing upper and lower asymptotes with efficacy ≧80% and <80%, respectively. […]

SMILES	AC50 [µM]
COc1ccc2c(c1)CC(C)C/C2=N\NC(=O)c1ccco1 (centres unmarked)	16.5
C/C(=N\NC(=O)c1cccs1)c1ccncc1	7.36
